Measurements from PubChem BioAssay (NCI).
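Compound exposure: 48 hours, 5 concentrations, 96-well plates. Definition used: TGI = concentration required for complete inhibition of growth.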

Tests used:
Assay in all cases: NCI anticancer screen, dose series, 48 h
786-0 renal = tested on: 786-0 renal
A498 renal = tested on: A498 renal
A549 NSCLC = tested on: A549 NSCLC
ACHN renal = tested on: ACHN renal
BT-549 breast = tested on: BT-549 breast
CAKI-1 renal = tested on: CAKI-1 renal
CCRF-CEM leukemia = tested on: CCRF-CEM leukemia
COLO 205 colon = tested on: COLO 205 colon
DU-145 prostate = tested on: DU-145 prostate
EKVX NSCLC = tested on: EKVX NSCLC
HCC-2998 colon = tested on: HCC-2998 colon
HCT-116 colon = tested on: HCT-116 colon
HCT-15 colon = tested on: HCT-15 colon
HL-60(TB) leukemia = tested on: HL-60(TB) leukemia
HOP-62 NSCLC = tested on: HOP-62 NSCLC
HOP-92 NSCLC = tested on: HOP-92 NSCLC
HS 578T breast = tested on: HS 578T breast
HT29 colon = tested on: HT29 colon
IGROV1 ovarian = tested on: IGROV1 ovarian
K-562 leukemia = tested on: K-562 leukemia
KM12 colon = tested on: KM12 colon
LOX IMVI melanoma = tested on: LOX IMVI melanoma
M14 melanoma = tested on: M14 melanoma
MALME-3M melanoma = tested on: MALME-3M melanoma
MCF7 breast = tested on: MCF7 breast
MDA-MB-231 breast = tested on: MDA-MB-231 breast
MDA-MB-435 = tested on: MDA-MB-435
MDA-N = tested on: MDA-N
MOLT-4 leukemia = tested on: MOLT-4 leukemia
NCI-H226 lung = tested on: NCI-H226 lung
NCI-H23 lung = tested on: NCI-H23 lung
NCI-H460 lung = tested on: NCI-H460 lung
NCI-H522 lung = tested on: NCI-H522 lung
NCI/ADR-RES ovarian = tested on: NCI/ADR-RES ovarian
OVCAR-3 ovarian = tested on: OVCAR-3 ovarian
OVCAR-4 ovarian = tested on: OVCAR-4 ovarian
OVCAR-5 ovarian = tested on: OVCAR-5 ovarian
OVCAR-8 ovarian = tested on: OVCAR-8 ovarian
PC-3 prostate = tested on: PC-3 prostate
RPMI-8226 leukemia = tested on: RPMI-8226 leukemia
RXF 393 renal = tested on: RXF 393 renal
SF-268 CNS = tested on: SF-268 CNS
SF-295 CNS = tested on: SF-295 CNS
SF-539 CNS = tested on: SF-539 CNS
SK-MEL-2 melanoma = tested on: SK-MEL-2 melanoma
SK-MEL-28 melanoma = tested on: SK-MEL-28 melanoma
SK-MEL-5 melanoma = tested on: SK-MEL-5 melanoma
SK-OV-3 ovarian = tested on: SK-OV-3 ovarian
SN12C renal = tested on: SN12C renal
SNB-19 CNS = tested on: SNB-19 CNS
SNB-75 CNS = tested on: SNB-75 CNS
SR leukemia = tested on: SR leukemia
SW-620 colon = tested on: SW-620 colon
T-47D breast = tested on: T-47D breast
TK-10 renal = tested on: TK-10 renal
U251 CNS = tested on: U251 CNS
UACC-257 melanoma = tested on: UACC-257 melanoma
UACC-62 melanoma = tested on: UACC-62 melanoma
UO-31 renal = tested on: UO-31 renal

With `CC(=O)CCCCn1c(=O)c2c(nc(Br)n2C)n(C)c1=O` the TGI (786-0 renal) was > 100 µM, the TGI (A498 renal) was > 100 µM and the TGI (A549 NSCLC) was > 100 µM. The TGI (ACHN renal) was > 100 µM, the TGI (BT-549 breast) was > 100 µM and the TGI (CAKI-1 renal) was 3.87 µM. The TGI (CCRF-CEM leukemia) was > 100 µM, the TGI (COLO 205 colon) was > 100 µM and the TGI (DU-145 prostate) was > 100 µM. The TGI (EKVX NSCLC) was 84.1 µM, the TGI (HCC-2998 colon) was > 100 µM and the TGI (HCT-116 colon) was > 100 µM. The TGI (HCT-15 colon) was > 100 µM, the TGI (HL-60(TB) leukemia) was > 100 µM and the TGI (HOP-62 NSCLC) was > 100 µM. The TGI (HOP-92 NSCLC) was 31.7 µM, the TGI (HS 578T breast) was > 100 µM and the TGI (HT29 colon) was > 100 µM. For the same compound, the TGI (IGROV1 ovarian) was > 100 µM, the TGI (K-562 leukemia) was > 100 µM and the TGI (KM12 colon) was > 100 µM. The TGI (LOX IMVI melanoma) was > 100 µM, the TGI (M14 melanoma) was > 100 µM and the TGI (MALME-3M melanoma) was > 100 µM. For the same compound, the TGI (MCF7 breast) was > 100 µM, the TGI (MDA-MB-231 breast) was > 100 µM and the TGI (MDA-MB-435) was > 100 µM. The TGI (MDA-N) was > 100 µM, the TGI (MOLT-4 leukemia) was > 100 µM and the TGI (NCI-H226 lung) was > 100 µM. For the same compound, the TGI (NCI-H23 lung) was > 100 µM, the TGI (NCI-H460 lung) was > 100 µM and the TGI (NCI-H522 lung) was 24.9 µM. The TGI (NCI/ADR-RES ovarian) was > 100 µM, the TGI (OVCAR-3 ovarian) was > 100 µM and the TGI (OVCAR-4 ovarian) was > 100 µM. The TGI (OVCAR-5 ovarian) was > 100 µM, the TGI (OVCAR-8 ovarian) was > 100 µM and the TGI (PC-3 prostate) was > 100 µM. The TGI (RPMI-8226 leukemia) was > 100 µM, the TGI (RXF 393 renal) was > 100 µM and the TGI (SF-268 CNS) was > 100 µM. The TGI (SF-295 CNS) was > 100 µM, the TGI (SF-539 CNS) was > 100 µM and the TGI (SK-MEL-2 melanoma) was > 100 µM. The TGI (SK-MEL-28 melanoma) was > 100 µM, the TGI (SK-MEL-5 melanoma) was > 100 µM and the TGI (SK-OV-3 ovarian) was > 100 µM. The TGI (SN12C renal) was > 100 µM, the TGI (SNB-19 CNS) was > 100 µM and the TGI (SNB-75 CNS) was > 100 µM. The TGI (SR leukemia) was > 100 µM, the TGI (SW-620 colon) was > 100 µM and the TGI (T-47D breast) was > 100 µM. For the same compound, the TGI (TK-10 renal) was > 100 µM, the TGI (U251 CNS) was > 100 µM and the TGI (UACC-257 melanoma) was > 100 µM. The TGI (UACC-62 melanoma) was > 100 µM and the TGI (UO-31 renal) was > 100 µM.

In the case of `NS(=O)(=O)c1ccc(NC(=O)N/N=C/c2ccccc2O)cc1`, the TGI (786-0 renal) was > 100 µM, the TGI (A498 renal) was > 100 µM and the TGI (A549 NSCLC) was > 100 µM. For the same compound, the TGI (ACHN renal) was > 100 µM, the TGI (BT-549 breast) was > 100 µM and the TGI (CAKI-1 renal) was > 100 µM. For the same compound, the TGI (CCRF-CEM leukemia) was > 100 µM, the TGI (COLO 205 colon) was > 100 µM and the TGI (DU-145 prostate) was > 100 µM. The TGI (EKVX NSCLC) was > 100 µM, the TGI (HCC-2998 colon) was > 100 µM and the TGI (HCT-116 colon) was > 100 µM. The TGI (HCT-15 colon) was > 100 µM, the TGI (HL-60(TB) leukemia) was > 100 µM and the TGI (HOP-62 NSCLC) was > 100 µM. The TGI (HOP-92 NSCLC) was > 100 µM, the TGI (HS 578T breast) was > 100 µM and the TGI (HT29 colon) was > 100 µM. The TGI (IGROV1 ovarian) was > 100 µM, the TGI (K-562 leukemia) was > 100 µM and the TGI (KM12 colon) was > 100 µM. The TGI (LOX IMVI melanoma) was > 100 µM, the TGI (M14 melanoma) was > 100 µM and the TGI (MALME-3M melanoma) was > 100 µM. The TGI (MCF7 breast) was > 100 µM, the TGI (MDA-MB-231 breast) was > 100 µM and the TGI (MDA-MB-435) was 55.6 µM. For the same compound, the TGI (MDA-N) was 70.2 µM, the TGI (MOLT-4 leukemia) was > 100 µM and the TGI (NCI-H226 lung) was > 100 µM. For the same compound, the TGI (NCI-H23 lung) was > 100 µM, the TGI (NCI-H460 lung) was > 100 µM and the TGI (NCI-H522 lung) was > 100 µM. For the same compound, the TGI (NCI/ADR-RES ovarian) was > 100 µM, the TGI (OVCAR-3 ovarian) was > 100 µM and the TGI (OVCAR-4 ovarian) was > 100 µM. For the same compound, the TGI (OVCAR-5 ovarian) was > 100 µM, the TGI (OVCAR-8 ovarian) was > 100 µM and the TGI (PC-3 prostate) was > 100 µM. The TGI (RPMI-8226 leukemia) was > 100 µM, the TGI (RXF 393 renal) was > 100 µM and the TGI (SF-268 CNS) was > 100 µM. The TGI (SF-295 CNS) was > 100 µM, the TGI (SF-539 CNS) was > 100 µM and the TGI (SK-MEL-2 melanoma) was > 100 µM. For the same compound, the TGI (SK-MEL-28 melanoma) was > 100 µM, the TGI (SK-MEL-5 melanoma) was > 100 µM and the TGI (SK-OV-3 ovarian) was > 100 µM. For the same compound, the TGI (SN12C renal) was > 100 µM, the TGI (SNB-19 CNS) was > 100 µM and the TGI (SNB-75 CNS) was > 100 µM. The TGI (SR leukemia) was > 100 µM, the TGI (SW-620 colon) was > 100 µM and the TGI (T-47D breast) was > 100 µM. The TGI (TK-10 renal) was > 100 µM, the TGI (U251 CNS) was > 100 µM and the TGI (UACC-257 melanoma) was > 100 µM. For the same compound, the TGI (UACC-62 melanoma) was > 100 µM and the TGI (UO-31 renal) was > 100 µM.
